Source: patent publication US12180226B2, “Spirotricycle RIPK1 inhibitors and methods of uses thereof” (Merck Sharp & Dohme LLC, priority 2021, dated 2024)
Counter-ions that a name gives are not always drawn.

Target: RIPK1 (recombinant GST-RIPK1 kinase domain, residues 1-327) (Homo sapiens (Human), UniProt Q13546)
Experiment: RIPK1-ADP-Glo Enzymatic Assay
Type: biochemical
Conditions: ADP-Glo; 25 nM GST-RIPK1, 300 μM ATP; assay lower limit ~25 nM; read-out: RIPK1 V0 Ec50
Protocol: RIPK1-ADP-Glo Enzymatic Assay
The enzymatic activity of RIPK1 is measured using an assay derived from ADP-Glo kit (TMPromega), which provides a luminescent-based ADP detection system. Specifically, the ADP generated by RIPK1 kinase is proportionally detected as luminescent signals in a homogenous fashion. In this context, the assessment of the inhibitory effect of small molecules (EC50) is measured by the effectiveness of the compounds to inhibit the ATP to ADP conversion by RIPK1.
In this assay, the potency (EC50) of each compound was determined from a ten-point (1:3 serial dilution; top compound concentration of 100000 nM) titration curve using the following outlined procedure. The assay bottom or lower limit of confidence is ˜25 nM. To each well of a white ProxiPlus 384 well-plate, 30 nL of compound (1% DMSO in final assay volume of 3 μL) was dispensed, followed by the addition of 2 μL of 1×assay buffer (25 mM Hepes 7.3, 20 mM MgCl2, 50 mM NaCl, 1 mM DTT, 0.005% Tween20, and 0.02% BSA) containing 37.5 nM of GST-RIPK1 (recombinant GST-RIPK1 kinase domain (residues 1-327) enzyme produced from baculovirus-transfected Sf21 cells: MW=62 kDa). Plates were placed in an ambient temperature humidified chamber for a 30-minute pre-incubation with compound. Subsequently, each reaction was initiated by the addition of 1 μL 1×assay buffer containing 900 μM ATP and […] dephosphorylated-MBP substrate. The final reaction in each well of 3 μL consists of 25 nM of GST-RIPK1, 300 μM ATP, and 3 μM dephosphorylated-MBP. Kinase reactions were allowed to proceed for 150 minutes prior to adding ADP-Glo reagents per Promega's outlined kit protocol. Dose-response curves were generated by plotting percent effect (% product conversion; Y-axis) vs. Log10 compound concentrations (X-axis). EC50 values were calculated using a non-linear regression, four-parameters sigmoidal dose-response model.

Chain of RIPK1 (recombinant GST-RIPK1 kinase domain, residues 1-327) (Q13546 1-327): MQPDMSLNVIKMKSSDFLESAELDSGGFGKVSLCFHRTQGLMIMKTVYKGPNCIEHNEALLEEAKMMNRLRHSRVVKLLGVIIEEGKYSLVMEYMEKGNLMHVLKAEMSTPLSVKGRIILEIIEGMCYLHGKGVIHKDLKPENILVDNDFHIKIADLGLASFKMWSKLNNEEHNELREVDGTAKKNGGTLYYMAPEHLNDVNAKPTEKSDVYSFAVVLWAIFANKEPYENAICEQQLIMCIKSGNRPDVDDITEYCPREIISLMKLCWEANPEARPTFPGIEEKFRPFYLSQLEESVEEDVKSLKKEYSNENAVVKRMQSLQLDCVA

| Compound | EC50 [nM] |
| --- | --- |
| O=C(c1ccccc1)N1CCC2(CC1)O[C@@H]1CC[C@@H](c3ccc(F)cn3)N1C2=O [Example 17.6, (5′S,7a′R)-1-benzoyl-5′-(5-fluoropyridin-2-yl)tetrahydro-3′H-spiro[piperidine-4,2′-pyrrolo[2,1-b]oxazol]-40′-one, TFA salt] | 94.4 |
| COc1nc(N2CCC3(CC2)O[C@@H]2CC[C@@H](c4cc(F)cc(F)c4)N2C3=O)ncc1Cl [Example 4.62, (5′S,7a′R)-1-(5-chloro-4-methoxypyrimidin-2-yl)-5′-(3,5-difluorophenyl)tetrahydro-3′H-spiro[piperidine-4,2′-pyrrolo[2,1-b] [1,3]oxazol]-3′-one] | 39.2 |
| O=C(c1ccccc1)N1CCC2(O[C@@H]3CC[C@@H](c4ccccc4)N3C2=O)C(F)C1 (single isomer, unassigned) [Example 2.2, (3[R or S],4[S or R], 5′S,7a′R)-1-benzoyl-3-fluoro-5′-phenyltetrahydro-3′H-spiro[piperidine-4,2′-pyrrolo[2,1-b]oxazol]-3′-one] | < 25 |
| O=C(c1ccc2nscc2c1)N1CCC2(CC1)O[C@@H]1CC[C@@H](c3cc(F)cc(F)c3)N1C2=O [Example 6.42, (5′S,7a′R)-1-(2,1-benzothiazole-5-carbonyl)-5′-(3,5-difluorophenyl)tetra-hydro-3′H-spiro [piperidine-4,2′-pyrrolo[2,1-b][1,3]oxazol]-3′-one] | < 25 |
| O=C1N2[C@@H](CC[C@H]2c2ccccc2)OC12CCN(c1ccc(-n3ccnc3)nn1)CC2 [Example 11.18, (5′S,7a′R)-1-[6-(1H-imidazol-1-yl)pyridazin-3-yl]-5′-phenyltetrahydro-3′H-spiro[piperidine-4,2′-pyrrolo[2,1-b][1,3]oxazol]-3′-one] | 93 |
| N#Cc1ccc(N2CCC3(CC2)O[C@@H]2CC[C@@H](c4cc(F)cc(F)c4)N2C3=O)cc1-n1ccnn1 [Example 4.70, 4-[(5′S,7a′R)-5′-(3,5-difluorophenyl)-3′-oxotetrahydro-1H,3′H-spiro[piperidine-4,2′-pyrrolo[2,1-b] [1,3]oxazol]-1-yl]-2-(1H-1,2,3-triazol-1-yl)benzonitrile] | 54.3 |
| Cc1nc(N2CCC3(CC2)O[C@@H]2CC[C@@H](c4ccccc4)N2C3=O)ncc1-c1ncn(C)n1 [Example 21.4, (5′S,7a′R)-1-[4-methyl-5-(1-methyl-1H-1,2,4-triazol-3-yl)pyrimidin-2-yl]-5′-phenyltetrahydro-3′H-spiro[piperidine-4,2′-pyrrolo[2,1-b][1,3]oxazol]-3′-one] | 117 |
| N#Cc1ccccc1C(=O)N1CCC2(CC1)O[C@@H]1CC[C@@H](c3cccc(F)c3)N1C2=O [Example 6.129, 2-[(5′S,7a′R)-5′-(3-fluorophenyl)-3′-oxotetrahydro-1H,3′H-spiro[piperidine-4,2′-pyrrolo[2,1-b][1,3]-oxazole]-1-carbonyl] benzonitrile] | 188 |
| O=C1N2[C@@H](CC[C@H]2c2cc(F)cc(F)c2)OC12CN(c1ccnc3ccnn13)C2 [Example 4.134, (5′S,7a′R)-5′-(3,5-difluorophenyl)-1-(pyrazolo[1,5-a]pyrimidin-7-yl)tetrahydro-3′H-spiro[azetidine-3,2′-pyrrolo[2,1-b] [1,3]oxazol]-3′-one] | 27.3 |
| O=C1N2[C@@H](CC[C@H]2c2ccccc2F)OC12CN(c1ccnc(Cl)c1)C2 [Example 4.109, (5′S,7a′R)-1-(2-chloropyridin-4-yl)-5′-(2-fluorophenyl)tetrahydro-3′H-spiro[azetidine-3,2′-pyrrolo[2,1-b]oxazol]-3′-one] | 37.8 |
| O=C1N2[C@@H](CC[C@H]2c2ccccc2)OC12CCN(c1ncnc3ccnn13)CC2F (single isomer, unassigned) [Example 4.97, (3[R or S],4[S or R], 5′S,7a′R)-3-fluoro-5′-phenyl-1-(pyrazolo [1,5-a][1,3,5]triazin-4-yl)tetrahydro-3′H-spiro[piperidine-4,2′-pyrrolo[2,1-b]oxazol]-3′-one] | < 25 |
| CSc1nc(N2CCC3(CC2)O[C@@H]2CC[C@@H](c4cc(F)cc(F)c4)N2C3=O)n2nccc2n1 [Example 4.86, (5′S,7a′R)-5′-(3,5-difluorophenyl)-1-(2-(methylthio)pyrazolo [1,5-a][1,3,5]triazin-4-yl)tetrahydro-3′H-spiro[piperidine-4,2′-pyrrolo[2,1-b]oxazol]-3′-one, TFA salt] | 269 |
| O=C(c1ccccc1)N1C2CCC1CC1(C2)O[C@@H]2CC[C@@H](c3cc(F)cc(F)c3)N2C1=O (stereo partly drawn) [Example 6.134, (5′S,7a′R)-8-(benzene-carbonyl)-5′-(3,5-difluorophenyl)tetra-hydro-3′H-spiro[8-azabicyclo[3.2.1]-octane-3,2′-pyrrolo-[2,1-b][1,3]oxazol]-3′-one] | 92.4 |
| CC1CN(c2ccnc3ccnn23)CCC12O[C@@H]1CC[C@@H](c3ccccc3)N1C2=O (stereo partly drawn) [Example 4.238, (4R,5′S,7a′R)-3-methyl-5′-phenyl-1-(pyrazolo[1,5-a]pyrimidin-7-yl)tetrahydro-3′H-spiro[piperidine-4,2′-pyrrolo[2,1-b] [1,3]oxazol]-3′-one] | < 25 |
| O=C1N2[C@@H](CC[C@H]2c2ccccc2)OC12CCN(c1ncnn3ccnc13)CC2 [Example 4.227, (5′S,7a′R)-1-(imidazo[2,1-f] [1,2,4]triazin-4-yl)-5′-phenyltetrahydro-3′H-spiro[piperidine-4,2′-pyrrolo[2,1-b] [1,3]oxazol]-3′-one] | 27.3 |
| Cc1nocc1C(=O)N1CCC2(CC1)O[C@@H]1CC[C@@H](c3cc(F)cc(F)c3)N1C2=O [Example 5.33, (5′S,7a′R)-5′-(3,5-difluoro-phenyl)-1-(3-methylisoxa-zole-4-carbonyl)tetrahydro-3′H-spiro[piperidine-4,2′-pyrrolo[2,1-b]oxazol]-3′-one] | 189 |
| N#Cc1ccc(N2CCC3(CC2)O[C@@H]2CC[C@@H](c4ccccc4)N2C3=O)n2ncnc12 [Example 4.261, 5-[(5′S,7a′R)-3′-oxo-5′-phenyltetrahydro-1H,3′H-spiro[piperidine-4,2′-pyrrolo[2,1-b] [1,3]oxazol]-1-yl][1,2,4]triazolo[1,5-a] pyridine-8-carbonitrile] | < 25 |
| O=C1N2[C@@H](CC[C@H]2c2ccccc2)OC12CCN(c1ncc(-c3cocn3)cc1F)CC2 [Example 21.6, (5′S,7a′R)-1-[3-fluoro-5-(1,3-oxazol-4-yl)pyridin-2-yl]-5′-phenyltetrahydro-3′H-spiro[piperidine-4,2′-pyrrolo[2,1-b][1,3]oxazol]-3′-one] | < 25 |
| CC(C)N1Cc2nc(N3CCC4(CC3)O[C@@H]3CC[C@@H](c5ccccc5)N3C4=O)ccc2C1=O [Example 4.195, (5′S,7a′R)-1-[5-oxo-6-(propan-2-yl)-6,7-dihydro-5H-pyrrolo[3,4-b]pyridin-2-yl]-5′-phenyltetrahydro-3′H-spiro[piperidine-4,2′-pyrrolo[2,1-b] [1,3]oxazol]-3′-one] | 48.4 |
| O=C1N2[C@@H](CC[C@H]2c2ccccc2)OC12CCN(c1cc(Cl)nc(C3CCCCC3)n1)CC2 [Example 4.34, (5′S,7a′R)-1-(6-chloro-2-cyclohexylpyrimidin-4-yl)-5′-phenyltetrahydro-3′H-spiro[piperidine-4,2′-pyrrolo[2,1-b] [1,3]oxazol]-3′-one] | 83 |
| O=C(c1ccc2c(c1)CCO2)N1CCC2(CC1)O[C@@H]1CC[C@@H](c3cc(F)cc(F)c3)N1C2=O [Example 6.75, (5′S,7a′R)-5′-(3,5-difluorophenyl)-1-(2,3-dihydro-1-benzo-furan-5-carbonyl)-tetrahydro-3′H-spiro [piperidine-4,2′-pyrrolo[2,1-b][1,3]-oxazol]-3′-one] | 24.7 |
| O=C(c1ccc(N2CCC3(CC2)O[C@@H]2CC[C@@H](c4ccccc4)N2C3=O)nc1)C(F)F [Example 4.161, (5′S,7a′R)-1-[5-(difluoroacetyl)pyridin-2-yl]-5′-phenyltetrahydro-3′H-spiro[piperidine-4,2′-pyrrolo[2,1-b] [1,3]oxazol]-3′-one] | < 25 |
| O=C1N2[C@@H](CC[C@H]2c2ccccc2)OC12CCN(c1ccc(Cl)c3ccnn13)CC2 [Example 4.153, (5′S,7a′R)-1-(4-chloropyrazolo[1,5-a]pyridin-7-yl)-5′-phenyltetrahydro-3′H-spiro[piperidine-4,2′-pyrrolo[2,1-b] [1,3]oxazol]-3′-one] | < 25 |
| O=C1N2[C@@H](CC[C@H]2c2cc(F)cc(F)c2)OC12CCN(c1ncnn3cccc13)CC2 [Example 13.11, (5′S,7a′R)-5′-(3,5-difluorophenyl)-1-(pyrrolo [2,1-f][1,2,4]triazin-4-yl)tetrahydro-3′H-spiro[piperidine-4,2′-pyrrolo[2,1-b]oxazol]-3′-one, TFA salt] | < 25 |
